A short description of this data set: solvent given as SMILES.

SMILES strings stand for the structures.

In turn, `CCC(C)(C)c1ccc2c(c1)C(CC)(CC)c1cc(-c3ccc4c(c3)C(CC)(CC)c3cc(C(C)(C)CC)ccc3-4)ccc1-2` had an absorption maximum (in C1CCCCC1) of 331 nm.
In the case of `CN(C)c1ccc(-c2nc3cccnc3[nH]2)cc1`, the absorption maximum runs as follows: (in C1CCCCC1) 351 nm; (in CC#N) 346 nm.
With `COC(=O)c1cc(=O)n(C)c2cc(-c3ccc(N4CCN(C)CC4)cc3)sc12`, the absorption maximum is 418 nm (in CC#N) and 420 nm (in ClCCl).
The molecule `CC1=CC(/C=C/c2ccc(N(C)C)cc2)=[N+]2C1=C(c1ccccc1)c1c(C)cc(/C=C/c3ccc(N(C)C)cc3)n1[B-]2(F)F` had an absorption maximum (in ClC(Cl)Cl) of 700 nm.
Regarding `COc1ccc2cc(/C=C/C3=C4CCc5ccccc5C4=[O+][B-](F)(F)O3)ccc2c1`, the absorption maximum (in ClCCl) was determined as 479 nm.
Molecule `Cc1cc(-c2ccc(-c3nc4ccccc4[nH]3)cc2)ccc1-c1ccc(-c2nc3ccccc3[nH]2)cc1` registered an absorption maximum (in CN(C)C=O) of 330 nm.
As for `COc1cc2c(cc1OC)C1=C[C@H](c3ccccc3)C3(C(C#N)=C(C#N)N1CC2)c1cc(Cl)ccc1-c1ccc(Cl)cc13`, the absorption maximum (in ClCCl) is reported as 310 nm.
Consider `N#C[Se]CCCCCOc1ccc2ccc(=O)oc2c1`, for which the absorption maximum was 321 nm (in C1CCCCC1); 322 nm (in C1CCOC1); 319 nm (in C1COCCO1); 321 nm (in CC#N); 319 nm (in CCCCCCC); 323 nm (in CCO). For the same molecule, the absorption maximum stood at 322 nm (in CN(C)C=O), 322 nm (in CO), 324 nm (in O) and 326 nm (in OCCO).
Take `Cc1cccc(NC(=O)c2ccc(N(C)C)cc2)c1`: the absorption maximum reads like this: (in C1CCCCC1) 306 nm; (in C1CCOC1) 311 nm; (in CC#N) 314 nm; (in CCOCC) 306 nm.
In turn, `Cc1cc(C)c(B2c3cc(C(C)(C)C)cc4ccc5c6ccccc6c6cc(C(C)(C)C)cc2c6c5c34)c(C)c1` registered an absorption maximum (in C1CCCCC1) of 424 nm.
In the case of `C(=C/c1ccc(N(c2ccccc2)c2ccccc2)cc1)/c1ccc(N(c2ccccc2)c2ccccc2)cc1`, the absorption maximum (in ClCCl) is 370 nm.
As for `CN(C)c1ccc2[c](c1)[Ge]([CH3])([CH3])[C]1=CC(=[N+](C)C)C=CC1=C2`, the absorption maximum (in O) worked out at 621 nm.
Consider `CC1=CC(C)=[N+]2C1=C(c1ccc(I)cc1)c1c(C)cc(C)n1[B-]21Oc2ccc3ccccc3c2-c2c(ccc3ccccc23)O1`, for which, for the setting “in ClC(Cl)Cl”, the absorption maximum is 506 nm.
Where the note is “in C1COCCO1”, `COc1ccc(C2=C/C(=C\c3ccc([N+](=O)[O-])cc3)C(=O)N2CC(C)C)cc1` gave an absorption maximum of 465 nm.
Take `CN(C)c1ccc(C2=[N+]3C(=Nc4c(-c5ccc(OCCCCS(=O)(=O)[O-])cc5)cc(-c5ccc(N(C)C)cc5)n4[B-]3(F)F)C(c3ccc(OCCCCS(=O)(=O)[O-])cc3)=C2)cc1`: under “in CS(C)=O”, the absorption maximum is 786 nm.
In the case of `O=C(O)CC[N+]1=c2cc3c(cc2CCC1)=Cc1c(c2cc4c5c(c2oc1=O)CCCN5CCC4)O3`, the absorption maximum is 619 nm (in CC#N), 617 nm (in CO), 637 nm (in ClCCl) and 608 nm (in O).
Molecule `CC(C)[Si](C#Cc1c2nsnc2c(C#C[Si](C(C)C)(C(C)C)C(C)C)c2nc3c(ccc4cc5ccccc5cc43)nc12)(C(C)C)C(C)C` yielded an absorption maximum (in CCCCCC) of 579 nm.
Turning to `Cc1cccc2[n+]1[B-](c1ccccc1)(c1ccccc1)c1cccc3c4c5c(cccc5c-2c13)[B-](c1ccccc1)(c1ccccc1)[n+]1c(C)cccc1-4`, the absorption maximum (in ClCCl) is listed as 542 nm.
For the molecule `COC(=O)[C@@H]1C(=O)Oc2ccccc2[C@H]1c1c[nH]c2ccccc12`, the absorption maximum (in CS(C)=O) is on record as 284 nm.
For the setting “in ClCCl”, `CCCCCCn1c(=O)c2c3nc4ccccc4nc3c3c(=O)n(CCCCCC)c(=O)c3c2c1=O` registered an absorption maximum of 404 nm.
Regarding `c1ccc2cc3cc(-c4cc(-c5nccs5)nc(-c5nccs5)c4)ccc3cc2c1`, the absorption maximum is listed as 305 nm (in CC#N), 375 nm (in CCCCCC), 356 nm (in CO) and 394 nm (in ClC(Cl)Cl).
For the molecule `CCC1=C(C)C2=C(c3c4ccccc4c(-c4ccccc4)c4ccccc34)c3c(C)c(CC)c(C)n3[B-](F)(F)[N+]2=C1C`, the absorption maximum by setting is: (in CC#N) 528 nm; (in CCCCCC) 531 nm; (in CCO) 529 nm; (in CN(C)C=O) 530 nm; (in Cc1ccccc1) 534 nm; (in ClCCl) 532 nm.
`CC1=[N+]2C(=C(c3c4ccccc4c(-c4ccccc4)c4ccccc34)c3ccc(C)n3[B-]2(F)F)C=C1` registered an absorption maximum (in CC#N) of 514 nm; an absorption maximum (in CCCCCC) of 516 nm; an absorption maximum (in CCO) of 516 nm; an absorption maximum (in CN(C)C=O) of 517 nm; an absorption maximum (in Cc1ccccc1) of 519 nm; an absorption maximum (in ClCCl) of 518 nm.
Turning to `N#Cc1ccc(C#Cc2ccc(C#Cc3ccc(C#Cc4ccccc4C#N)cc3C#N)cc2C#N)cc1`, the absorption maximum by setting is: (in C1CCOC1) 356 nm; (in CC#N) 352 nm; (in CN(C)C=O) 357 nm; (in ClC(Cl)Cl) 357 nm; (in c1ccccc1) 358 nm.
For the setting “in ClCCl”, `COc1ccc(-c2cnc3cccc(-c4ccccc4)n23)cc1` yielded an absorption maximum of 341 nm.
Regarding `c1ccc(CSc2c3ccc(=[N+]4CCCCC4)cc-3oc3cc(N4CCCCC4)ccc23)cc1`, the absorption maximum (in ClCCl) is reported as 598 nm.
As to `O=C1Nc2ccccc2/C1=C/C(=O)c1ccc([N+](=O)[O-])cc1`, the absorption maximum is, setting by setting: (in C1CCCCC1) 341 nm; (in C1COCCO1) 343 nm; (in CC#N) 341 nm; (in CC(C)(C)O) 347 nm; (in CC(C)O) 345 nm; (in CCCCCC) 340 nm. The absorption maximum (in CCCCO) is 346 nm; the absorption maximum (in CCOC(C)=O) amounted to 342 nm; the absorption maximum (in CN(C)C=O) amounted to 344 nm; the absorption maximum (in CO) amounted to 346 nm; the absorption maximum (in ClCCl) is recorded as 344 nm.
On to `F[B-]12Oc3ccccc3-c3c4[n+]5c(c([n+]31)-c1ccccc1O2)-c1ccccc1O[B-]5(F)Oc1ccccc1-4`, for which the absorption maximum (in ClCCl) was 553 nm.
Regarding `CCCCCCCCOc1ccc(C2=C3C(C)=CC(C)=[N+]3[B-](F)(F)n3c(C)cc(C)c32)cc1`, the absorption maximum (in ClCCl) was 500 nm.
Regarding `COC(=O)C1=C(C(=O)OC)C2=C[C@H]3c4ccccc4[C@]2([Se]1)c1ccccc13`, the absorption maximum (in ClCCl) was determined as 370 nm.
Still for that read-out and setting: with `C(=C\c1cc(/C=C/c2ccc(N(c3ccccc3)c3ccccc3)cc2)ncn1)/c1ccc(N(c2ccccc2)c2ccccc2)cc1` the figure was 427 nm.
With `CCCCCCc1ccsc1-c1ccc(-c2sc(C(=O)O)cc2CCCCCC)s1`, the absorption maximum was 361 nm (in CC(C)=O); 357 nm (in CCCCCC); 352 nm (in CCO); 352 nm (in CO); 364 nm (in ClCCl); 365 nm (in O).
With `CC(C)[Si](C#Cc1c2cc3ccccc3cc2c(C#Cc2ccc(Br)cc2)c2cc3ccccc3cc12)(C(C)C)C(C)C`, the absorption maximum (in ClCCl) was found to be 654 nm.
`COc1cc2c(cc1-c1ccncc1)Cc1c3c(c4c(c1-2)-c1cc(OC)c(-c2ccncc2)cc1C4)C(=O)N(CCC(C)C)C3=O`: the absorption maximum (in C1CCOC1) was 407 nm.
In the case of `COc1cc(OC)cc(C2=C3C(C)=C(I)C(/C=C/c4ccsc4)=[N+]3[B-](F)(F)n3c(/C=C/c4ccsc4)c(I)c(C)c32)c1`, the absorption maximum was determined as 670 nm (in C1CCOC1), 675 nm (in CS(C)=O) and 670 nm (in ClCCl).
Take `CCOC(=O)/C=C/c1cc2ccc(O)cc2oc1=O`: the absorption maximum (in CCO) is listed as 367 nm.
The molecule `CC(C)[Si](C#Cc1ccc(C#C[Si](C(C)C)(C(C)C)C(C)C)c2nc3c(ccc4ccccc43)nc12)(C(C)C)C(C)C` had an absorption maximum (in CCCCCC) of 411 nm.
For the setting “in C1CCCCC1”, `CCn1c2ccccc2c2ccc(-c3ccc(OC)cc3)cc21` displayed an absorption maximum of 310 nm.
`CC1=CC(/C=C/c2ccc3ccc4cccc5ccc2c3c45)=[N+]2C1=C(c1ccccc1)c1c(C)cc(/C=C/c3ccc4ccc5cccc6ccc3c4c56)n1[B-]2(F)F` had an absorption maximum (in CC1CCCO1) of 691 nm.
Regarding `c1cc2ccc3cccc4c(-c5cc(-c6nccs6)nc(-c6nccs6)c5)cc(c1)c2c34`, the absorption maximum runs as follows: (in CC#N) 367 nm; (in CCCCCC) 344 nm; (in CO) 365 nm; (in ClC(Cl)Cl) 351 nm.
For the setting “in Cc1ccccc1”, `Cc1cc(-n2c3ccccc3c3cc4c(cc32)C2c3ccccc3C4c3ccccc32)c(C)cc1-c1nc(-c2ccccc2)nc(-c2ccccc2)n1` came in with an absorption maximum of 345 nm.
For `COC(=O)C[C@H](Cc1c[nH]c2ccccc12)NC(=O)[C@H](CC(=O)N[C@@H](CC1=CCc2ccccc21)C(=O)OC)NC(=O)OC(C)(C)C`, the absorption maximum (in CC#N) turned out to be 280 nm, the absorption maximum (in CCOC(C)=O) worked out at 280 nm and the absorption maximum (in CO) worked out at 280 nm.
On to `CN(C)c1ccc(/C=C/c2ccc(C#N)cc2)cc1`, for which the absorption maximum by setting is: (in C1CCOC1) 385 nm; (in CC#N) 383 nm; (in CCCC#N) 386 nm; (in CCCCCC) 378 nm; (in CCCCOCCCC) 380 nm; (in CCO) 383 nm. The same molecule displayed an absorption maximum (in CCOCC) of 380 nm.
For the setting “in ClC(Cl)Cl”, `COc1ccc(C2=Cc3ccc4ccccc4[n+]3[B-](F)(F)O2)cc1` registered an absorption maximum of 439 nm.

For the origin of these results see the Deep4Chem optical property database.
